Experimental data published in patent publication US20220017572A1, “GEMINOID LIPOPEPTIDE COMPOUNDS AND THEIR USES” (Erasmus University Medical Center Rotterdam, priority 2016, published 2022).
Non-standard residues stand in square brackets, D forms with d. Residues, ends and D or L forms follow the SMILES beside them. C16 = C16 alkyl chain at peptide end (geminoid)

Key:
DENV2 protease = target: T1, DENV2 protease (Dengue virus type 2, UniProt P14340); assay: DENV2 protease biochemical assay; conditions: for inhibition at 50 µM / % Inhibition at 50 μM (2): 50 μM inhibitor
T1 construct: The active site of the dengue protease is in the N-terminal part of NS3
T1 sequence (P14340 1476-1653): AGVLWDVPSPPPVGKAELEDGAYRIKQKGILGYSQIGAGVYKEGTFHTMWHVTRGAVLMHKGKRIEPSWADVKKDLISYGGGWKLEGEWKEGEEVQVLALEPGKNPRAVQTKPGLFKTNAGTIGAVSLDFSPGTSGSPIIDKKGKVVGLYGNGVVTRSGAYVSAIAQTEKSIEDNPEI
T1 sequence (P14340 1398-1437): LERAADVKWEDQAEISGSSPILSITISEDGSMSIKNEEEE

DENV2 protease replicon = DENV2 protease replicon assay; type: cell-based; conditions: lowest concentration with observed activity in replicon assay
human furin = human furin (Homo sapiens, UniProt P09958); assay: Human furin inhibition, hydrolysis of Ac-RVRR-MCA; type: biochemical
Chain of human furin (P09958 108-794): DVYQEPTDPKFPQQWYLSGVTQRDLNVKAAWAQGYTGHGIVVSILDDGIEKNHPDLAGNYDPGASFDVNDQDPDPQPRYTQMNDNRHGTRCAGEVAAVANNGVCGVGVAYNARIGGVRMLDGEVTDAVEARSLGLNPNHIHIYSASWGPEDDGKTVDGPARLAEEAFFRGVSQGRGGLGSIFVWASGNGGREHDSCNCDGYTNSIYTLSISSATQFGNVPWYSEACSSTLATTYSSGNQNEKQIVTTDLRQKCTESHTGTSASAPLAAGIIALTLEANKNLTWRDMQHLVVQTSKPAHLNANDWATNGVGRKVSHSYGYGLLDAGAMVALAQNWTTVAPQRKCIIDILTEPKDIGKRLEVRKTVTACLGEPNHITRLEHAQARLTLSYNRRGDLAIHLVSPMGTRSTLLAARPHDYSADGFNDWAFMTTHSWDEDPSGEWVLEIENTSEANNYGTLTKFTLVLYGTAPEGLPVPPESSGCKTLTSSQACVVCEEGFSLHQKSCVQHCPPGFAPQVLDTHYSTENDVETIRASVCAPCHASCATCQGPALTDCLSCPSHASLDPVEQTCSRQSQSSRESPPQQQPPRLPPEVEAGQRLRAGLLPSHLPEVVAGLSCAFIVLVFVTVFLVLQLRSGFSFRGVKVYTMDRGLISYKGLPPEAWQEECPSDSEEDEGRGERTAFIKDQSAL
Procedure: (§1) The enzyme was dissolved in 1 mL MES buffer (10 mM), 1 mM CaCl2, pH 7.0 at 36.5° C. Substrate was added in a concentration 10 times the Km, and the inhibitor compounds of type C (C16-KGnK-C16, C16-KAnK-C16, and C16-RAnR-C16) were added in increasing concentrations (1.0, 5.0, 10.0, 20.0, 40.0 μL) from a stock solution of 2 mg in 1 mL DMSO. The residual activity was measured in a Hitachi F2500 spectrofluorimeter, and plots were fitted using the Grafit® software (Erithracus Software, Horley, Surrey, UK). All the assays were calculated by the Morrison equation for competitive inhibition (eq. 1, [Morrison, 1969]). The amount of substrate used for the tight binding titration experiments follow all the requirements, where [S]<<Km for all enzymes, so the Kiapp=Ki.
However, for furin we used a correction of Ki app, where [S]˜Km (eq. 2).
(§2) Range of Proteases Inhibited by Geminoids, Determination of Ki with Z-RR-MCA (Dengue 2 Protease) and Ac-RVRR-MCA (Furin) (SEQ ID NO:60).

thrombin = thrombin (Homo sapiens, UniProt P00734); assay: Thrombin inhibition, fluorimetric enzyme assay; type: biochemical; conditions: 36.5° C., read-out: Residual Activity (%) Thrombin
Procedure: as §1, with “Kiapp=Ki. […]” for “Kiapp=Ki.”

trypsin = target: T2, trypsin (Bos taurus, UniProt P00760); assay: Trypsin inhibition, fluorimetric enzyme assay; type: biochemical; conditions: 36.5° C., read-out: Residual Activity (%) Trypsin
T2 construct: gene PRSS1
T2 sequence (P00760 24-246): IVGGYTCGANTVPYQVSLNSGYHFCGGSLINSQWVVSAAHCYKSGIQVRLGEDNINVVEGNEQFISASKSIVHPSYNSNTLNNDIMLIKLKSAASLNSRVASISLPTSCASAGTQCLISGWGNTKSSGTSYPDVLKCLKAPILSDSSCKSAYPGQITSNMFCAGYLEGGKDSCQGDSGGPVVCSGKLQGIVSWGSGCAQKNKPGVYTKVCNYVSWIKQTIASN
Procedure: as §1
The first group of gemini-like peptide amphiphiles to be screened was that of C16-K(G or A)nK-C16 (compound type C, with R1=n-C15H31, R2=n-C16H33). […] The results of the Ki determination for trypsin, dengue 2 protease, and human furin are given in Table 1A; some general data for the inhibition by this type of compounds are given in Table 1B. For most compounds in Table 1 the Ki could be derived from competitive inhibition experiments. Judging from the Ki values with the relatively simple substrate Z-RR-MCA, the best inhibitors for dengue 2 protease contain alanine (A) rather than glycine (G).

dengue 2 protease [1] = target: T3, dengue 2 protease (Dengue virus type 2, UniProt P14340); assay: Dengue 2 protease inhibition, hydrolysis of Z-RR-MCA; type: biochemical, dengue 2 virus; parameters: Activity with inhibitors: unit not given here; conditions: for Activity with inhibitors: 10 μM Z-RR-MCA, pH 9.0, 37° C., initial activity in UAF/min
T3 construct: The active site of the dengue protease is in the N-terminal part of NS3
T3 sequence (P14340 1476-1653): as the sequence (P14340 1476-1653) above
Procedure: The active site of the dengue protease is in the N-terminal part of NS3 which is also a serine protease with catalytic triad Asp79-His51-Ser135, but requires […] (CF40) for activity; the inhibition reported here was studied on a […] (CF40-GGGGSGGGG-NS3; (SEQ ID NO:54)) which has also been structurally characterized [Erbel et al., 2006; Luo et al. 2008].
as §1, with “Substrate” for “The enzyme was dissolved in 1 mL MES buffer (10 mM), 1 mM CaCl2, pH 7.0 at 36.5° C. Substrate”
as §2

dengue 2 protease [2] = target: T3, dengue 2 protease; assay: Dengue 2 protease inhibition in presence of Triton X-100 (detergent test, Nature Protocol); type: biochemical, dengue 2 virus; conditions: 0.05% Triton X-100; for Activity with 0.05% Triton: initial activity in UAF/min
Text: A further investigation of the interactions of the geminoid inhibitors with biological membranes and with membrane-bound proteases is needed. […] The preparation and tests of peptides symmetrically, asymmetrically and singly alkylated with saturated, short (C6), and unsaturated (C18:1) alkyl tails are in progress.

## CCCCCCCCCCCCNC(=O)[C@H](CCCCN)NC(=O)[C@H](CCCCN)NC(=O)[C@H](CCCCN)NC(=O)[C@H](C)NC(=O)CCCCCCCCCCC [C12-AKKK-C12] (HELM PEPTIDE1{[CCCCCCCCCCCC(=O)[*:2]].A.K.K.K.[CCCCCCCCCCCCN[*:1]]}$$$$V2.0)
DENV2 protease
  IC50: 300 nM
  inhibition at 50 µM: 98.5%
DENV2 protease replicon
  Replicon activity [μM] (1): 0.1 µM

## CCCCCCCCCCCCNC(=O)[C@H](CCCCN)NC(=O)[C@H](CCCCN)NC(=O)[C@H](CCCCN)NC(=O)[C@H](CC(C)C)NC(=O)CCCCCCCCCCC [C12-LKKK-C12] (HELM PEPTIDE1{[CCCCCCCCCCCC(=O)[*:2]].L.K.K.K.[CCCCCCCCCCCCN[*:1]]}$$$$V2.0)
DENV2 protease
  IC50: 300 nM
  inhibition at 50 µM: 102%
DENV2 protease replicon
  Replicon activity [μM] (1): 0.1 µM

## CCCCCCCCCCCCCCCCNC(=O)[C@H](CCCCN)NC(=O)[C@H](CCC(N)=O)NC(=O)[C@H](CCCNC(=N)N)NC(=O)[C@H](C)NC(=O)CCCCCCCCCCCCCCC [C16-ARQK-C16] (HELM PEPTIDE1{[CCCCCCCCCCCCCCCC(=O)[*:2]].A.R.Q.K.[CCCCCCCCCCCCCCCCN[*:1]]}$$$$V2.0)
DENV2 protease
  IC50: 300 nM
  inhibition at 50 µM: 95.7%
DENV2 protease replicon
  Replicon activity [μM] (1): 5.0 µM

## CCCCCCCCCCCCCCCCNC(=O)[C@@H](CO)NC(=O)[C@@H](CCCCN)NC(=O)[C@@H](C)NC(=O)[C@@H](CCCCN)NC(=O)[C@@H](CC(C)C)NC(=O)CCCCCCCCCCCCCCC [C16-D-LKAKS-C16] (HELM PEPTIDE1{[CCCCCCCCCCCCCCCC(=O)[*:2]].[dL].[dK].[dA].[dK].[dS].[CCCCCCCCCCCCCCCCN[*:1]]}$$$$V2.0)
DENV2 protease
  inhibition at 50 µM: 97.4%
DENV2 protease replicon
  Replicon activity [μM] (1): 3.0 µM

## CCCCCCCCCCCCCCCCNC(=O)[C@H](CCCCN)NC(=O)[C@H](CCCCN)NC(=O)[C@H](CCCCN)NC(=O)[C@H](Cc1ccccc1)NC(=O)CCCCCCCCCCCCCCC [C16-FKKK-C16] (HELM PEPTIDE1{[CCCCCCCCCCCCCCCC(=O)[*:2]].F.K.K.K.[CCCCCCCCCCCCCCCCN[*:1]]}$$$$V2.0)
DENV2 protease
  IC50: 200 nM
  inhibition at 50 µM: 95.8%
DENV2 protease replicon
  Replicon activity [μM] (1): 5.0 µM

## CCCCCCCCCCCCCCCCNC(=O)[C@H](CCCCN)NC(=O)[C@H](C)NC(=O)[C@H](C)NC(=O)[C@H](CCCCN)NC(=O)CCCCCCCCCCCCCCC [C16-KAAK-C16] (HELM PEPTIDE1{[CCCCCCCCCCCCCCCC(=O)[*:2]].K.A.A.K.[CCCCCCCCCCCCCCCCN[*:1]]}$$$$V2.0)
Human furin; 2.5 μM inhibitor, 36.5° C.
  activity at 2.5 µM: 94%
Human furin; 5 μM inhibitor, 36.5° C.
  activity at 5 µM: 83%
Human furin; 10 μM inhibitor, 36.5° C.
  activity at 10 µM: 77%
Human furin; 15 μM inhibitor, 36.5° C.
  activity at 15 µM: 69%
Human furin; 40 μM inhibitor, 36.5° C.
  activity at 40 µM: 3%
Human furin; 10 mM Mes.NaOH, pH 7.0, 2.35 μM Ac-RVRR-MCA, 37° C., read-out: Ki hFurin
  Ki: 970 nM
DENV2 protease
  inhibition at 50 µM: 97.7%
DENV2 protease replicon
  Replicon activity [μM] (1): 3.0 µM
thrombin; 15 μM inhibitor
  remaining activity at 15 µM: 80%
thrombin; 40 μM inhibitor
  remaining activity at 40 µM: 55%
thrombin; 80 μM inhibitor
  remaining activity at 80 µM: 39%
trypsin; 15 μM inhibitor
  remaining activity at 15 µM: 64%
trypsin; 40 μM inhibitor
  remaining activity at 40 µM: 20%
trypsin; 80 μM inhibitor
  remaining activity at 80 µM: 7%
Dengue 2 protease [1]
  Ki: 630 nM
Dengue 2 protease [1]; 2.5 μM inhibitor, 36.5° C.
  activity at 2.5 µM: 89%
Dengue 2 protease [1]; 5 μM inhibitor, 36.5° C.
  activity at 5 µM: 79%
Dengue 2 protease [1]; 10 μM inhibitor, 36.5° C.
  activity at 10 µM: 68%
Dengue 2 protease [1]; 15 μM inhibitor, 36.5° C.
  activity at 15 µM: 45%
Dengue 2 protease [1]; 25 μM of inhibitor
  Activity with inhibitors: 0
Dengue 2 protease [1]; 40 μM inhibitor, 36.5° C.
  activity at 40 µM: 10%
Dengue 2 protease [2]; 25 μM of inhibitor
  % recovery in presence of Triton: 56%
  Activity with 0.05% Triton: 100

## CCCCCCCCCCCCCCCCNC(=O)[C@H](CO)NC(=O)[C@H](CCCCN)NC(=O)[C@H](C)NC(=O)[C@H](CCCCN)NC(=O)[C@H](CC(C)C)NC(=O)CCCCCCCCCCCCCCC [C16-LKAKS-C16] (HELM PEPTIDE1{[CCCCCCCCCCCCCCCC(=O)[*:2]].L.K.A.K.S.[CCCCCCCCCCCCCCCCN[*:1]]}$$$$V2.0)
DENV2 protease
  IC50: 300 nM
  inhibition at 50 µM: 108%
DENV2 protease replicon
  Replicon activity [μM] (1): 3.0 µM

## CCCCCCCCCCCCCCCCNC(=O)[C@H](CCCCN)NC(=O)[C@H](CCC(N)=O)NC(=O)[C@H](C)NC(=O)[C@H](CCCNC(=N)N)NC(=O)CCCCCCCCCCCCCCC [C16-RAQK-C16] (HELM PEPTIDE1{[CCCCCCCCCCCCCCCC(=O)[*:2]].R.A.Q.K.[CCCCCCCCCCCCCCCCN[*:1]]}$$$$V2.0)
DENV2 protease
  IC50: 600 nM
  inhibition at 50 µM: 102%
DENV2 protease replicon
  Replicon activity [μM] (1): 10.0 µM

## CCCCCCCCCCCCCCCCNC(=O)[C@H](CCCNC(=N)N)NC(=O)[C@H](C)NC(=O)[C@H](CCCNC(=N)N)NC(=O)CCCCCCCCCCCCCCC [C16RARC16, n-C15H31C(O)-Arg-Ala-Arg-(n-C16H33).2TFA]
Dengue 2 protease [1]
  Ki: 3100 nM
Dengue 2 protease [1]; 5 μM of inhibitor
  Activity with inhibitors: 27
Dengue 2 protease [2]; 5 μM of inhibitor
  % recovery in presence of Triton: 52%
  Activity with 0.05% Triton: 105

## C16-AAQK-C16: geminoid in shorthand Cp-Zn-Cq, peptide SEQ ID NO: 78
DENV2 protease
  % Inhibition at 50 μM (2): 26.8%
DENV2 protease replicon
  Replicon activity [μM] (1): 5.0 µM

## C16-AKAK-C16: geminoid in shorthand Cp-Zn-Cq, peptide SEQ ID NO: 74
DENV2 protease
  % Inhibition at 50 μM (2): 103.7%
DENV2 protease replicon
  Replicon activity [μM] (1): 3.0 µM

## C16-AKAKG-C16: geminoid in shorthand Cp-Zn-Cq, peptide SEQ ID NO: 87
DENV2 protease
  % Inhibition at 50 μM (2): 102.3%
DENV2 protease replicon
  Replicon activity [μM] (1): 3.0 µM

## C16-D-AKAK-L-S-C16: geminoid in shorthand Cp-Zn-Cq, D-AKAK with L-S, SEQ ID NO: 89 (C16-[dA][dK][dA][dK]S-C16)
DENV2 protease
  % Inhibition at 50 μM (2): 108.0%
DENV2 protease replicon
  Replicon activity [μM] (1): 3.0 µM

## C16-LKAKG-C16: geminoid in shorthand Cp-Zn-Cq, peptide SEQ ID NO: 88
DENV2 protease
  % Inhibition at 50 μM (2): 98.4%
DENV2 protease replicon
  Replicon activity [μM] (1): 3.0 µM
